“Also recorded” adds a separate entry of the source.
How the values were obtained:
TRPV1 [1] = target: T1, TRPV1 (Mus musculus, UniProt Q704Y3); assay: Patch-clamp of capsaicin-sensitive sensory neurons (nodose ganglia); assay type: cell-based
T1 construct: endogenous in cells; host or cells: primary nodose ganglion neurons of adult C57Bl6/J mice
Description: (§1) HEK cell and sensory neuron electrophysiology. HEK 293F cells (Invitrogen) were cultured in DMEM supplemented with 1% non-essential amino acids and 10% fetal calf serum. Cell cultures were maintained at 37° C. with 5% CO2. Cells were transfected with rat TRPV 1 (gift of David Julius), and GFP cDNA using Lipofectamine™ Transfection Reagent (Invitrogen) and used 24-48 h after transfection. Nodose ganglia were obtained from adult mice (C57B16/J and TRPV1-null), cut, digested with collagenase, and cultured in Neurobasal +2% B-27 medium (Invitrogen), 0.1% L-glutamine and 1% penicillin/streptomycin on poly-D lysine-coated glass coverslips at 37° C. in 5% CO2. Neurons were used within 24-36 hr of culture. Whole-cell and single-channel patch clamp recordings were performed using an EPC8 amplifier (HEKA). The current signal was low-pass filtered at 1-3 kHz and sampled at 4 kHz. Currents were further filtered for display purposes. For whole-cell and excised patch recordings the bath solution contained (in mM): 140 NaCl, 4 KCl, 1 MgCl2, 1 EGTA, 10 HEPES, 10 glucose pH 7.3 (290 mOsm). The pipette solution contained (in mM): 140 CsC1, 10 NaCl, 10 HEPES, 5 EGTA, 2 Mg ATP and 0.03 GTP, pH 7.3. The peak amplitudes measured either during the prepulse or the tail current (within 1 ms) were plotted as a function of the test potential and normalized to the maximal current obtained from the following Boltzmann function: […]

[2] = test system: AITC-sensitive DRG neurons; assay: Voltage- and current-clamp of DRG sensory neurons; assay type: cell-based, mouse; conditions: camphor 0.5 mM, propofol 100 μM
Description: (§2) Electrophysiology. HEK 293F cells were transfected with rat TRPV1, TRPA1, and TRPM8 (gift of David Julius, University of California, San Francisco). Dorsal root ganglia were cultured from adult mice (C57B16/J wild type and TRPV1-null, and mixed B6/129 background TRPA1-null) in Neurobasal +2% B-27 medium (Invitrogen), 0.1% L-glutamine and 1% penicillin/streptomycin. Whole-cell and single-channel patch-clamp recordings were performed by using an EPC8 amplifier (HEKA Electronics). For whole-cell and excised patch recordings the bath solution contained 140 mMNaCl, 4 mMKCl, 1 mMMgCl2, 1.2 mMCaCl2, 10 mMHepes, 10 mM glucose, pH 7.3. For cell-attached experiments, NaCl was replaced with KCl in the bath solution. The pipette solution contained 140 mM NaCl or KCl, 10 mM Hepes, 5 mM EGTA, pH 7.3. For neuronal recording NaCl was replaced with K-gluconate (plus 1 mMATP, 0.2 mM GTP). Solutions were applied via a gravity-fed system. Separate outlets were used to apply capsaicin and AITC solutions to avoid contamination. Voltage-dependent properties were measured as described in Matt and Ahern, J. Physiol. 585:469-482 (2007). Current-voltage measurements comprised a 200-ms ramp from −150 mV to +200 mV. The baseline currents under control conditions were subtracted. For cell-attached experiments, peak amplitudes were measured from all-points histograms, and open probability was measured as NPo>750 ms. Defolliculated Xenopus laevis oocytes were injected with ≈10 ng of hTRPA1 (gift of Ardem Patapoutian, The Scripps Research Institute, La Jolla, Calif.). Oocytes were placed in a Perspex chamber and continuously superfused (5 ml min^−1) with Ca^2+-free solution containing 100 mM NaCl, 2.5 mM KCl, 5 mM Hepes, 1 mM MgC12 and titrated to pH 7.3 with ˜5 mM NaOH.

[3] = test system: DRG neurons from TRPA1-null mice; assay: Ca2+ imaging in DRG neurons from TRPA1-null mice; assay type: cell-based, mouse; conditions: capsaicin 100 nM
Description: Ca^2+ Imaging. Neurons were loaded with 1 μM Fluo4-AM (Molecular Probes) for 20 min and washed for a further 10-20 min before recording. The dye was excited at 488±15 nm. Emitted fluorescence was filtered with a 535±25 nm bandpass filter, captured by a SPOT RT digital camera (Diagnostic Instruments) and read into a computer. Analysis was performed offline by using Simple PCI software (Compix Inc.).

mice [4] = assay: Nocifensive behavior after topical application to the nasal epithelium; assay type: in vivo, mouse; conditions: capsaicin 10 mM
Description: (§3) Behavioral Experiments and Neurogenic Inflammation. Animal experiments were performed according to National Institutes of Health and institutional guidelines. […] Nocifensive behavior (nose wiping in sawdust bedding) was recorded for 2 min with a video camera and the duration was subsequently measured by a blinded observer. […] Electromyographic (EMG) activity was recorded via platinum electrodes from the semitendinosus muscle in mice anesthetized with urethane (1.3 g/kg) as described in Ando and Watanabe, Br J. Anaesth. […] The EMG signal was recorded by using a low-pass cutoff frequency of 200 Hz and integrated offline by using a 100-ms time window. […] Ear thickness was recorded by using an engineer's micrometer (Mitutoyo Corp.) before mustard-oil application and thereafter every 15 min for 60 min of anesthesia and 60 min of recovery.

mice [5] = assay: Flexor reflex response (EMG of semitendinosus muscle) after femoral artery injection; assay type: in vivo, mouse; conditions: propofol 500 μM, capsaicin 50 μM
Description: as §3

TRPV1 [6] = target: T2, TRPV1 (Rattus norvegicus, UniProt O35433); assay: Whole-cell patch-clamp of TRPV1-expressing HEK293 cells; assay type: cell-based; design: expressed in transfected cells; host or cells: HEK 293F (Invitrogen), co-transfected with GFP cDNA; conditions: for Shifts in TRPV1 V1/2 and increases in maximal conductance by alcohols: decanol 0.6 mM, dodecanol 0.1 mM
Description: (§4) Electrophysiology. […] Whole-cell and single-channel patch-clamp recordings were performed by using an EPC8 amplifier (HEKA Electronics). For whole-cell and excised patch recordings the bath solution contained 140 mMNaCl, 4 mMKCl, 1 mMMgCl2, 1.2 mMCaCl2, 10 mMHepes, 10 mM glucose, pH 7.3. For cell-attached experiments, NaCl was replaced with KCl in the bath solution. […] For neuronal recording NaCl was replaced with K-gluconate (plus 1 mMATP, 0.2 mM GTP). Solutions were applied via a gravity-fed system. […] Voltage-dependent properties were measured as described in Matt and Ahern, J. Physiol. […] The baseline currents under control conditions were subtracted. For cell-attached experiments, peak amplitudes were measured from all-points histograms, and open probability was measured as NPo>750 ms. Defolliculated Xenopus laevis oocytes were injected with ≈10 ng of hTRPA1 (gift of Ardem Patapoutian, The Scripps Research Institute, La Jolla, Calif.).
as §1, with “HEK 293F cells (Invitrogen) were cultured in DMEM supplemented with 1% non-essential amino acids and 10% fetal calf serum.” left out

TRPV1 [7] = target: T2, TRPV1; assay: Voltage-clamp of TRPV1-expressing Xenopus oocytes (capsaicin, protons, heat); assay type: cell-based; conditions: VGAs 0.6 mM, pH 5.5
Description: Oocyte electrophysiology. […] Oocytes were placed in a Perspex chamber and continuously superfused (5 ml min-1) with Ca2+-free solution containing (in mM): 100 NaCl, 2.5 KCl, 5 HEPES, 1 MgCl2 and titrated to pH 7.3 with ˜5 mM NaOH. For solutions <pH 6.0, HEPES was replaced with either 5 mM MES or 5 mM sodium citrate. Oocytes were routinely voltage-clamped at −60 mV at 22-23° C. For heat activation, bath temperature was raised from ˜22-50° C. over ˜100 s using an in-line solution heater (Warner Instruments). The temperature was continuously monitored with a probe placed within 2 mm of the oocyte. The temperature-activation threshold was defined as a 20% increase in current above baseline.
Volatile general anesthetics. Saturated stock solutions of volatile general anesthetics (VGAs) were prepared in gas-tight bottles by dissolving excess anesthetic agents in bath solutions and stirring vigorously overnight. From these stock solutions fresh dilutions were made up every 40-60 minutes. Concentrations of volatile anesthetics in the bath solutions were verified using a modified head-space gas chromatography method. The gas chromatograph (Carlo Erba, Milan, Italy) was equipped with a flame ionization detector (FID) and mass spectrometer. The carrier gas was hydrogen (60 kPa column head pressure) and the fused silica capillary column, coated with polysiloxane SE-30, was 25 m×0.25 mm. Injector temperature was 250° C., FID temperature was 300° C. and the oven was maintained at 90° C. Standards were prepared from a mixture of halothane, isoflurane, and sevoflurane dissolved in acetonitrile with enflurane as an internal standard.

[8] = rat at 37° C.; cited from earlier work
TRPM8 = target: T3, TRPM8 (Rattus norvegicus, UniProt Q8R455); assay: Whole-cell patch-clamp of TRPM8-expressing HEK293 cells; assay type: cell-based
T3 construct: expressed in transfected cells; host or cells: HEK 293F
Description: as §4

TRPA1 = target: T4, TRPA1 (Rattus norvegicus, UniProt Q6RI86); assay: Whole-cell patch-clamp of TRPA1-expressing HEK293 cells; assay type: cell-based; conditions: for Activation of TRPA1 currents by VGAs: 0.9 mM, voltage-clamped HEK293 cells
T4 construct: expressed in transfected cells; host or cells: HEK 293F
Description: as §4
Volatile General Anesthetics and Chemicals. Saturated stock solutions of volatile GAs were prepared in gas-tight bottles by dissolving excess anesthetic agents in bath solutions overnight. From these stock solutions fresh dilutions were made up every 40-60 min. Concentrations of GAs in the bath solutions were verified by using a modified head-space gas chromatography method. […] Alcohols with <6 carbons were dissolved directly into extracellular solution, and alcohols containing 6 carbons or more were dissolved in DMSO and then diluted into extracellular solutions that were sonicated for 20 min. All other drugs were prepared as stock solutions in DMSO or ethanol and diluted into physiological solution before experiments.

hTRPA1 = target: T5, hTRPA1 (Homo sapiens, UniProt O75762); assay: AITC-evoked currents in TRPA1-expressing Xenopus oocytes; assay type: cell-based; conditions: VGAs 0.5-0.65 mM, AITC 10 μM
T5 construct: expressed in transfected cells; host or cells: Xenopus laevis oocytes (injected)
Description: as §2

[9] = isoflurane 0.9 mM, octanol 1 mM

T2 sequence (O35433 whole entry): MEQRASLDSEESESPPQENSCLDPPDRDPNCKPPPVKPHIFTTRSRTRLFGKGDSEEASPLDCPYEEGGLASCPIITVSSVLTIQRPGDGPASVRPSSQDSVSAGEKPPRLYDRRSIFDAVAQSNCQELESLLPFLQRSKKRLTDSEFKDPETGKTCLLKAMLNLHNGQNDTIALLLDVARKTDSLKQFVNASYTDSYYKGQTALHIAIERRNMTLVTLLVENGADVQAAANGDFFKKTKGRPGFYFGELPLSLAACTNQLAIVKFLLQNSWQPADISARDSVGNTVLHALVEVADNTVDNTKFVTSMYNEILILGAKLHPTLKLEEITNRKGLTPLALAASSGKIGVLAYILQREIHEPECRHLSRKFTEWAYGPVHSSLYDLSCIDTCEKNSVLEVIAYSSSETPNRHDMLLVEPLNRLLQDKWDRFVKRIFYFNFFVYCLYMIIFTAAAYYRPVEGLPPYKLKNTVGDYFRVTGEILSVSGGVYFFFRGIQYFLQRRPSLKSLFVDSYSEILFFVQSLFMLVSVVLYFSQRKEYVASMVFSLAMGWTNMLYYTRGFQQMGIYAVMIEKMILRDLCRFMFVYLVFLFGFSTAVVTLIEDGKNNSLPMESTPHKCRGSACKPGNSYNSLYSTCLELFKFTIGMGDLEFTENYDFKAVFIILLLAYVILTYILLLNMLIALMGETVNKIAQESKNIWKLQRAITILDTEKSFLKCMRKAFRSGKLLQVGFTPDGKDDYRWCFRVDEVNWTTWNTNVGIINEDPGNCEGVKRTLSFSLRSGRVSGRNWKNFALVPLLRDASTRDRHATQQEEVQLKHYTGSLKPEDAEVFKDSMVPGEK
T1 sequence (Q704Y3 whole entry): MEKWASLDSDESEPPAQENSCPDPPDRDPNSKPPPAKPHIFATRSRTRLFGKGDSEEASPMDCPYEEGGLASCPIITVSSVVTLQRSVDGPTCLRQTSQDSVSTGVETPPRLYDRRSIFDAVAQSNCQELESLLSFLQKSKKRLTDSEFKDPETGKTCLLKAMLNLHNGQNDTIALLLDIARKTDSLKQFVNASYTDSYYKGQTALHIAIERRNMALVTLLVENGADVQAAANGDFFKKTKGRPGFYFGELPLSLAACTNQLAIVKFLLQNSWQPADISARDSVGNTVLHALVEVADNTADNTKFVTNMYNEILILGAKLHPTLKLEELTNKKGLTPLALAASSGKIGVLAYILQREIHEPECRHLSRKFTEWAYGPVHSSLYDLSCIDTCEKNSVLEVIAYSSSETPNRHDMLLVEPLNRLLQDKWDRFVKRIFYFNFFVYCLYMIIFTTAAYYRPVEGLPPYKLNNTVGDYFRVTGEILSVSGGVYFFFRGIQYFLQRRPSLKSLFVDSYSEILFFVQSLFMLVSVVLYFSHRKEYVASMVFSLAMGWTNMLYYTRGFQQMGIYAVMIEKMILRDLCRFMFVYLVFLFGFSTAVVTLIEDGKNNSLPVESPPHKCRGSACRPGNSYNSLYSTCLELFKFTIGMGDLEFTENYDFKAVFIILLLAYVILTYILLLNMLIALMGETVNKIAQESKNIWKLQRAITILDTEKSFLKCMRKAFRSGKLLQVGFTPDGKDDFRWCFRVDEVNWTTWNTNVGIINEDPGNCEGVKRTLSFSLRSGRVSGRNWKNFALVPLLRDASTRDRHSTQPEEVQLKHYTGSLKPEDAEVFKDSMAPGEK
T4 sequence (Q6RI86 whole entry): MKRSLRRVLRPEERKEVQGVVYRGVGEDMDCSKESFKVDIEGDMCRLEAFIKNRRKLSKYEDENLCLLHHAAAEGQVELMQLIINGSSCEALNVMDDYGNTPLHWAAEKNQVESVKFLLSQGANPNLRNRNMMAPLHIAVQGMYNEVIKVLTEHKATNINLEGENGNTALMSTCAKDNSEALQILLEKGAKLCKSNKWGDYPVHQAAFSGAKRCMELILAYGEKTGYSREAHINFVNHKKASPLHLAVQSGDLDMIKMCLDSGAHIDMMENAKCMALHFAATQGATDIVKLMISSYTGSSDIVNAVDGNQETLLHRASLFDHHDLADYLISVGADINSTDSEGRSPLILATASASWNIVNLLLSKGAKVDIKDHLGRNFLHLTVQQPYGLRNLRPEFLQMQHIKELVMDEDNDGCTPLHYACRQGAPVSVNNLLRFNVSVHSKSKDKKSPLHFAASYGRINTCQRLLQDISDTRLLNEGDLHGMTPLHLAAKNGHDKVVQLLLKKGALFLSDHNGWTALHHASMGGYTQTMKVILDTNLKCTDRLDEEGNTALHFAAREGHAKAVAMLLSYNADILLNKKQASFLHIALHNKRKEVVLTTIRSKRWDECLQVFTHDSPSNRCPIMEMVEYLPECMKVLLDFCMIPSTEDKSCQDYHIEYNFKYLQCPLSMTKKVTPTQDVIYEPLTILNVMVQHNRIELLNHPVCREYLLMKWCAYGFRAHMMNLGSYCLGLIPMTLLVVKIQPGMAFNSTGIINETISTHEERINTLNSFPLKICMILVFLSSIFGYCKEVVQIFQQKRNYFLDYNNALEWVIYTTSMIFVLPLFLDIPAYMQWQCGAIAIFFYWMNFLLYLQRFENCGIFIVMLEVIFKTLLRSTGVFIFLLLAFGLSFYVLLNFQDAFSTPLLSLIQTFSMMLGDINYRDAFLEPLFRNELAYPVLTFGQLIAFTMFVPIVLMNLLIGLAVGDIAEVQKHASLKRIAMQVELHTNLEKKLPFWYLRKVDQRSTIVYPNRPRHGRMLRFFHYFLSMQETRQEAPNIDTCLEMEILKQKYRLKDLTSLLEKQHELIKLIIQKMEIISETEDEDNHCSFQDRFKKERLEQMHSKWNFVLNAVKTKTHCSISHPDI
T5 sequence (O75762 whole entry): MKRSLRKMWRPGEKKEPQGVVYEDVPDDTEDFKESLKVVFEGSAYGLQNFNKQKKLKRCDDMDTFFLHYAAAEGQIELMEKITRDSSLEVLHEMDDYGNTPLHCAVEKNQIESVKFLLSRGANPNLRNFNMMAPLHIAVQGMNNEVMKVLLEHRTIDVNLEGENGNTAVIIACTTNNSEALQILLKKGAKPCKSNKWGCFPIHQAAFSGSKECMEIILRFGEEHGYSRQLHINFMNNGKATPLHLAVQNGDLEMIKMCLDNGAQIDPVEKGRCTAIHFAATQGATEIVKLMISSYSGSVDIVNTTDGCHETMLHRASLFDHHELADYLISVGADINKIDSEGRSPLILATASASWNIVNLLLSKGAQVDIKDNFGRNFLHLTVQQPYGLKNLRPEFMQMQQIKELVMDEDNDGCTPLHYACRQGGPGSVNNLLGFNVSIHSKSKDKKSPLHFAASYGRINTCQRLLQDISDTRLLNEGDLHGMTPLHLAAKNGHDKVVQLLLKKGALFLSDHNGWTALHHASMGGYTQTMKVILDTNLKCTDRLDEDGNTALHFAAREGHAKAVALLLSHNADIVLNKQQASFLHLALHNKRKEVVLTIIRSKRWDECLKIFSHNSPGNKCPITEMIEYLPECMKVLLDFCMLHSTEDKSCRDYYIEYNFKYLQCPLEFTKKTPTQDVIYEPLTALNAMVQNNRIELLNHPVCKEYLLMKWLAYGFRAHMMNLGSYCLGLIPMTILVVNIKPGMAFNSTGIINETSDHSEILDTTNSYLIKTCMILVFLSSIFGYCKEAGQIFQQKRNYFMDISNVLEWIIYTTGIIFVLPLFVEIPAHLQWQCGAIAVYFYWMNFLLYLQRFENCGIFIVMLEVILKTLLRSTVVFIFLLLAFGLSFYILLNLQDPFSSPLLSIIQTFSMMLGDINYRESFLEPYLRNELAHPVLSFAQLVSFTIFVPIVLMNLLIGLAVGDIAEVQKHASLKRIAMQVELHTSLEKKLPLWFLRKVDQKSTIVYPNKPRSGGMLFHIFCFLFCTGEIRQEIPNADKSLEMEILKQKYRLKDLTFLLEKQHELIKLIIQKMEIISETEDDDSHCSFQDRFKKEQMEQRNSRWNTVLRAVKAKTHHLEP
T3 sequence (Q8R455 whole entry): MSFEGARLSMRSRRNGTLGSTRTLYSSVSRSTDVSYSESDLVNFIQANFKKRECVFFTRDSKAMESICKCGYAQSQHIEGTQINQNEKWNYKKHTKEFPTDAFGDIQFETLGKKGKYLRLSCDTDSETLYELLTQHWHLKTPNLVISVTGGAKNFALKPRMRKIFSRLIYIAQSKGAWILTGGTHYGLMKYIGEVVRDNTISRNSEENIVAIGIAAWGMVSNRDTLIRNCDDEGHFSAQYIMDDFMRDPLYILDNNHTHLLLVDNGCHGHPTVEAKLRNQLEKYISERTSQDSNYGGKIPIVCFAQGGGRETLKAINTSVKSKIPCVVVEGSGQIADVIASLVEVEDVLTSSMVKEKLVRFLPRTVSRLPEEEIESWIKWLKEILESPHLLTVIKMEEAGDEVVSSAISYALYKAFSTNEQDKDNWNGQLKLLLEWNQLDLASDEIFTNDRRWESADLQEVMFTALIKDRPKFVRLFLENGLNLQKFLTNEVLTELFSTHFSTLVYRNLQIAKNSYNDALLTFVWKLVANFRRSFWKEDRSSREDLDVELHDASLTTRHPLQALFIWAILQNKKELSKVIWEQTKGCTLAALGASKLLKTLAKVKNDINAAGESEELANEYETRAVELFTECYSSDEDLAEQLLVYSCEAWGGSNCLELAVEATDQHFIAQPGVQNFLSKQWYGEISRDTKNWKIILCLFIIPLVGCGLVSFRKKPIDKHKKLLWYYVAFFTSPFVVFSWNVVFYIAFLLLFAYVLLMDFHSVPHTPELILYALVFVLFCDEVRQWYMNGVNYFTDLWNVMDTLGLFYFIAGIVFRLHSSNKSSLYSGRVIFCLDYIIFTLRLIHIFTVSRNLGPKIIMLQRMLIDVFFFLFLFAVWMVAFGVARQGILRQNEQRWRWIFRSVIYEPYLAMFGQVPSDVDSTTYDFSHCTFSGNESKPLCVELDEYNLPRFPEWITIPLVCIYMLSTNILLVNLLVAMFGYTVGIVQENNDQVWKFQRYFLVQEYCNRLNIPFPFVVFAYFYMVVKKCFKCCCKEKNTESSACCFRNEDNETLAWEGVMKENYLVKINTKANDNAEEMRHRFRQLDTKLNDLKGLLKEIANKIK

## CC(C)(C)c1ccc(/C=C/C(=O)Nc2ccc3c(c2)OCCO3)cc1 [AMG9810]
TRPV1 [1]
  Inhibition of isoflurane-evoked TRPV1 responses after PDBu: inhibits; also recorded: completely inhibited

## CC12CCC(CC1=O)C2(C)C (centres unmarked) [camphor]
[2]
  Inhibition of propofol-evoked inward currents: blocked; also recorded: sensitive

## COc1cc(CNC(=O)CCCC/C=C/C(C)C)ccc1O [capsaicin]
[3]
  TRPA1-deficient cells sensitive to capsaicin: 43%
Mice [4]
  Nocifensive behavior in TRPV1-null mice: but not in TRPV 1-null mice
  Nocifensive behavior in wild-type mice: produced similar behavior
Mice [5]
  Flexor reflex muscle activity in TRPA1+/− mice: robust responses
  Flexor reflex muscle activity in TRPA1-null mice: robust responses

## Oc1cc2c(cc1O)CN(C(=S)NCCc1ccc(Cl)cc1)CCC2 [capsazepine]
TRPV1 [1]; capsazepine 1 μM, 3 of 3 cells
  Inhibition of responses to isoflurane after BK: completely inhibited

## CCCCCCCCCCO [decanol]
TRPV1 [6]; octanol 1 mM
  Shifts in TRPV1 V1/2 and increases in maximal conductance by alcohols: smaller response

## CCCCCCCCCCCCO [dodecanol]
TRPV1 [6]; octanol 1 mM
  Shifts in TRPV1 V1/2 and increases in maximal conductance by alcohols: without effect

## FC(F)OC(F)(F)C(F)Cl (centres unmarked) [enflurane]
TRPV1 [7]
  Enhancement of proton-evoked currents compared with isoflurane and sevoflurane: significantly more
[8]
  1 MAC equivalent aqueous concentration (published conversion factor): 0.64 mM

## CCOC(=O)c1cncn1[C@H](C)c1ccccc1 [etomidate]
TRPM8; 100 μM, n=5-6
  Change in V1/2 of TRPM8 (ΔV1/2, increase): 25.5 mV

## FC(F)(F)C(Cl)Br (centres unmarked) [halothane]
TRPA1
  Activation of TRPA1 currents by VGAs: without effect
[8]
  1 MAC equivalent aqueous concentration (published conversion factor): 0.27 mM
TRPV1 [6]; VGA 0.9 mM, PDBu 500 nM, room temperature (25° C.)
  Currents evoked after PDBu treatment in TRPV1-expressing HEK293 cells: activates currents

## COC(F)(F)C(Cl)Cl [methoxyflurane]
hTRPA1
  Effect on AITC-evoked currents: did not

## CCCCCCCCO [octanol]
TRPA1; [9]
  Activation of TRPA1 at holding potential −50 mV: selectively activated
TRPA1; octanol 1.8 mM, at +200 mV
  Response relative to 1 mM AITC: < 50%
TRPM8; [9]
  Effects at TRPM8 at holding potential −50 mV: negligible effects
TRPV1 [6]; [9]
  Effects at TRPV1 at holding potential −50 mV: negligible effects
TRPV1 [6]; octanol 1 mM
  Shifts in TRPV1 V1/2 and increases in maximal conductance by alcohols: reached a maximum
TRPV1 [6]; octanol 1.8 mM, at 200 mV
  Response relative to 10 μM capsaicin: ~40%

## FCOC(C(F)(F)F)C(F)(F)F [sevoflurane]
TRPA1
  Activation of TRPA1 currents by VGAs: without effect
hTRPA1
  Effect on AITC-evoked currents: did not
[8]
  1 MAC equivalent aqueous concentration (published conversion factor): 0.35 mM

Reference: US20110104301A1, “METHODS OF REDUCING PAIN AND INFLAMMATION” (Georgetown University, A Congressionally Chartered …, priority 2008, published 2011)
